Assay results from PubChem BioAssay AID1963835 (Molecular Pharmacology Branch, DTP, NCI, 2024).

System: 699152-130-R-J1-PDC complex spheroid viability
Experiment: Anticancer human tumor 699152-130-R-J1-PDC patient-derived pancreatic carcinoma cell line growth inhibition [POLQ]
Settings: for IC50: curve of first compound; for viability, T/C: stronger effect = lower value
In short: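 Complex spheroid viability model combining PDC tumour cells with endothelial (HUVEC) and MSC stromal cells. Novobiocin, ART-558 or RP6685 were tested singly and in combination with standard and investigational anticancer drugs. Each was titrated in half-log steps from near clinical Cmax, or from 10 microM where Cmax was unknown.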

[1] = second compound 0.0316 µM, first compound 0.0316 µM
[2] = second compound 0.0316 µM, first compound 0.1 µM
[3] = second compound 0.0316 µM, first compound 0.316 µM
[4] = second compound 0.0316 µM, first compound 1 µM
[5] = second compound 0.0316 µM, first compound 3.16 µM
[6] = second compound 0.0316 µM, first compound 10 µM
[7] = second compound 0.1 µM, first compound 0.0316 µM
[8] = second compound 0.1 µM, first compound 0.1 µM
[9] = second compound 0.1 µM, first compound 0.316 µM
[10] = second compound 0.1 µM, first compound 1 µM
[11] = second compound 0.1 µM, first compound 3.16 µM
[12] = second compound 0.1 µM, first compound 10 µM
[13] = second compound 0.316 µM, first compound 0.0316 µM
[14] = second compound 0.316 µM, first compound 0.1 µM
[15] = second compound 0.316 µM, first compound 0.316 µM
[16] = second compound 0.316 µM, first compound 1 µM
[17] = second compound 0.316 µM, first compound 3.16 µM
[18] = second compound 0.316 µM, first compound 10 µM
[19] = second compound 1 µM, first compound 0.0316 µM
[20] = second compound 1 µM, first compound 0.1 µM
[21] = second compound 1 µM, first compound 0.316 µM
[22] = second compound 1 µM, first compound 1 µM
[23] = second compound 1 µM, first compound 3.16 µM
[24] = second compound 1 µM, first compound 10 µM
[25] = second compound 3.16 µM, first compound 0.0316 µM
[26] = second compound 3.16 µM, first compound 0.1 µM
[27] = second compound 3.16 µM, first compound 0.316 µM
[28] = second compound 3.16 µM, first compound 1 µM
[29] = second compound 3.16 µM, first compound 3.16 µM
[30] = second compound 3.16 µM, first compound 10 µM
[31] = second compound 10 µM, first compound 0.0316 µM
[32] = second compound 10 µM, first compound 0.1 µM
[33] = second compound 10 µM, first compound 0.316 µM
[34] = second compound 10 µM, first compound 1 µM
[35] = second compound 10 µM, first compound 3.16 µM
[36] = second compound 10 µM, first compound 10 µM
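Note: spheroids exposed to agents for 7 days before viability reading.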
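Throughout, for viability, T/C: percent of DMSO vehicle control viability so 100% = vehicle and 0% = no viable signal.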

With `CCc1cc2c(N3CCc4c(cc(Cn5ccnc5)cc4-c4cn(C)nc4C(F)(F)F)C3=O)cc(C)nc2c(OC)n1` + COC1C(OC(N)=O)C(O)C(Oc2ccc3c(O)c(NC(=O)c4ccc(O)c(CC=C(C)C)c4)c(=O)oc3c2C)OC1(C)C the IC50 (second compound 0.0316 µM) was > 10 µM, the IC50 (second compound 0.1 µM) was > 10 µM and the IC50 (second compound 0.316 µM) was > 10 µM. For the same molecule, the IC50 (second compound 1 µM) was > 10 µM, the IC50 (second compound 3.16 µM) was > 10 µM and the IC50 (second compound 10 µM) was > 10 µM. For the same molecule, the viability, T/C [1] was 91%, the viability, T/C [2] was 91.9% and the viability, T/C [3] was 89.5%. For the same molecule, the viability, T/C [4] was 93.2%, the viability, T/C [5] was 101% and the viability, T/C [6] was 100%. For the same molecule, the viability, T/C [7] was 93.9%, the viability, T/C [8] was 91.4% and the viability, T/C [9] was 91.7%. For the same molecule, the viability, T/C [10] was 101%, the viability, T/C [11] was 96.9% and the viability, T/C [12] was 99.5%. The viability, T/C [13] was 94.5%, the viability, T/C [14] was 91.4% and the viability, T/C [15] was 89.8%. For the same molecule, the viability, T/C [16] was 96.1%, the viability, T/C [17] was 99% and the viability, T/C [18] was 106%. The viability, T/C [19] was 98.8%, the viability, T/C [20] was 83.5% and the viability, T/C [21] was 97.2%. The viability, T/C [22] was 96%, the viability, T/C [23] was 94.2% and the viability, T/C [24] was 99.8%. For the same molecule, the viability, T/C [25] was 92.4%, the viability, T/C [26] was 86.8% and the viability, T/C [27] was 84.2%. For the same molecule, the viability, T/C [28] was 98.5%, the viability, T/C [29] was 95% and the viability, T/C [30] was 102%. It also gave a viability, T/C [31] of 93.2%, a viability, T/C [32] of 102% and a viability, T/C [33] of 88.5%. It also gave a viability, T/C [34] of 100%, a viability, T/C [35] of 105% and a viability, T/C [36] of 106%.
In the case of `CCc1cc2c(N3CCc4c(cc(Cn5ccnc5)cc4-c4cn(C)nc4C(F)(F)F)C3=O)ccnc2c(OC)n1` + COC1C(OC(N)=O)C(O)C(Oc2ccc3c(O)c(NC(=O)c4ccc(O)c(CC=C(C)C)c4)c(=O)oc3c2C)OC1(C)C, the IC50 (second compound 0.0316 µM) is reported as > 10 µM, the IC50 (second compound 0.1 µM) is reported as > 10 µM and the IC50 (second compound 0.316 µM) is reported as > 10 µM. The IC50 (second compound 1 µM) was > 10 µM, the IC50 (second compound 3.16 µM) was > 10 µM and the IC50 (second compound 10 µM) was > 10 µM. The viability, T/C [1] was 82.1%, the viability, T/C [2] was 102% and the viability, T/C [3] was 95.5%. It also gave a viability, T/C [4] of 107%, a viability, T/C [5] of 104% and a viability, T/C [6] of 97.3%. The viability, T/C [7] was 91.7%, the viability, T/C [8] was 89.8% and the viability, T/C [9] was 87.4%. It also gave a viability, T/C [10] of 87.6%, a viability, T/C [11] of 109% and a viability, T/C [12] of 96.4%. It also gave a viability, T/C [13] of 88.2%, a viability, T/C [14] of 89.8% and a viability, T/C [15] of 99.9%. For the same molecule, the viability, T/C [16] was 99%, the viability, T/C [17] was 105% and the viability, T/C [18] was 97%. For the same molecule, the viability, T/C [19] was 97.1%, the viability, T/C [20] was 85% and the viability, T/C [21] was 90.4%. For the same molecule, the viability, T/C [22] was 112%, the viability, T/C [23] was 101% and the viability, T/C [24] was 91.9%. The viability, T/C [25] was 86.7%, the viability, T/C [26] was 91.4% and the viability, T/C [27] was 89.6%. It also gave a viability, T/C [28] of 96%, a viability, T/C [29] of 98.4% and a viability, T/C [30] of 93.9%. For the same molecule, the viability, T/C [31] was 105%, the viability, T/C [32] was 80.6% and the viability, T/C [33] was 85.3%. For the same molecule, the viability, T/C [34] was 101%, the viability, T/C [35] was 102% and the viability, T/C [36] was 101%.
`COc1cc2cc(C(=O)CCC(=O)O)sc2cc1OC` + COC1C(OC(N)=O)C(O)C(Oc2ccc3c(O)c(NC(=O)c4ccc(O)c(CC=C(C)C)c4)c(=O)oc3c2C)OC1(C)C was tested, and the IC50 (second compound 0.0316 µM) was > 10 µM, the IC50 (second compound 0.1 µM) was > 10 µM and the IC50 (second compound 0.316 µM) was > 10 µM. For the same molecule, the IC50 (second compound 1 µM) was > 10 µM, the IC50 (second compound 3.16 µM) was > 10 µM and the IC50 (second compound 10 µM) was > 10 µM. The viability, T/C [1] was 104%, the viability, T/C [2] was 113% and the viability, T/C [3] was 97.1%. It also gave a viability, T/C [4] of 95.8%, a viability, T/C [5] of 106% and a viability, T/C [6] of 103%. The viability, T/C [7] was 91.2%, the viability, T/C [8] was 109% and the viability, T/C [9] was 94.3%. For the same molecule, the viability, T/C [10] was 93.7%, the viability, T/C [11] was 103% and the viability, T/C [12] was 97.5%. The viability, T/C [13] was 107%, the viability, T/C [14] was 110% and the viability, T/C [15] was 105%. It also gave a viability, T/C [16] of 108%, a viability, T/C [17] of 101% and a viability, T/C [18] of 95.8%. The viability, T/C [19] was 110%, the viability, T/C [20] was 105% and the viability, T/C [21] was 93%. The viability, T/C [22] was 102%, the viability, T/C [23] was 98.6% and the viability, T/C [24] was 103%. For the same molecule, the viability, T/C [25] was 110%, the viability, T/C [26] was 98.6% and the viability, T/C [27] was 107%. For the same molecule, the viability, T/C [28] was 92.4%, the viability, T/C [29] was 109% and the viability, T/C [30] was 102%. The viability, T/C [31] was 113%, the viability, T/C [32] was 100% and the viability, T/C [33] was 120%. For the same molecule, the viability, T/C [34] was 107%, the viability, T/C [35] was 98.8% and the viability, T/C [36] was 106%.
With `O=C(Nc1ccc(O)c(NS(=O)(=O)c2ccc(F)cc2)c1)c1ccc(-c2ccccc2)cc1` + COC1C(OC(N)=O)C(O)C(Oc2ccc3c(O)c(NC(=O)c4ccc(O)c(CC=C(C)C)c4)c(=O)oc3c2C)OC1(C)C the IC50 (second compound 0.0316 µM) was > 10 µM, the IC50 (second compound 0.1 µM) was > 10 µM and the IC50 (second compound 0.316 µM) was > 10 µM. The IC50 (second compound 1 µM) was > 10 µM, the IC50 (second compound 3.16 µM) was > 10 µM and the IC50 (second compound 10 µM) was > 10 µM. For the same molecule, the viability, T/C [1] was 105%, the viability, T/C [2] was 123% and the viability, T/C [3] was 117%. The viability, T/C [4] was 104%, the viability, T/C [5] was 122% and the viability, T/C [6] was 80.8%. The viability, T/C [7] was 103%, the viability, T/C [8] was 104% and the viability, T/C [9] was 117%. For the same molecule, the viability, T/C [10] was 101%, the viability, T/C [11] was 101% and the viability, T/C [12] was 94.6%. The viability, T/C [13] was 103%, the viability, T/C [14] was 101% and the viability, T/C [15] was 95.7%. The viability, T/C [16] was 101%, the viability, T/C [17] was 117% and the viability, T/C [18] was 77.3%. For the same molecule, the viability, T/C [19] was 115%, the viability, T/C [20] was 99.6% and the viability, T/C [21] was 97.2%. The viability, T/C [22] was 94.5%, the viability, T/C [23] was 103% and the viability, T/C [24] was 82.3%. For the same molecule, the viability, T/C [25] was 108%, the viability, T/C [26] was 111% and the viability, T/C [27] was 113%. The viability, T/C [28] was 119%, the viability, T/C [29] was 105% and the viability, T/C [30] was 89.5%. It also gave a viability, T/C [31] of 95.3%, a viability, T/C [32] of 107% and a viability, T/C [33] of 102%. The viability, T/C [34] was 95.5%, the viability, T/C [35] was 103% and the viability, T/C [36] was 86.3%.
